Assay in all cases: UV-visible dark absorbance spectrum of purified reconstituted rhodopsin
Common to all, as to format: binding

The target of one assay is T1, Eumaeus atala UVRh (Eumaeus atala, UniProt A0A7T3U8H7).
T1 sequence (A0A7T3U8H7 1-406): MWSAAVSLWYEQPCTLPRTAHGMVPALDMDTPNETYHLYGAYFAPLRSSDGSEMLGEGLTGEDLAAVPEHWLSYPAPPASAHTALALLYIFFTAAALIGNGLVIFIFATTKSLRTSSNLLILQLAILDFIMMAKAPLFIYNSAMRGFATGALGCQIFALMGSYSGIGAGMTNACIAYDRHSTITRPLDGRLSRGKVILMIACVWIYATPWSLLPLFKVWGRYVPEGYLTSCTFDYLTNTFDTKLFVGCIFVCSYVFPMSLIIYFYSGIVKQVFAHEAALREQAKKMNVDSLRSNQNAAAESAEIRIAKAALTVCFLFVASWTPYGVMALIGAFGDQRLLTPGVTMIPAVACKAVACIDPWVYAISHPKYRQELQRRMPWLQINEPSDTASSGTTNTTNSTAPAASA
Conditions: covalent, 40 uM 11-cis-retinal.

For the next assay, the target named is T2, Eat-BRh2 (BRh2, Eat-B2) (Eumaeus atala, UniProt A0A7T3U8M8).
T2 sequence (A0A7T3U8M8 1-380): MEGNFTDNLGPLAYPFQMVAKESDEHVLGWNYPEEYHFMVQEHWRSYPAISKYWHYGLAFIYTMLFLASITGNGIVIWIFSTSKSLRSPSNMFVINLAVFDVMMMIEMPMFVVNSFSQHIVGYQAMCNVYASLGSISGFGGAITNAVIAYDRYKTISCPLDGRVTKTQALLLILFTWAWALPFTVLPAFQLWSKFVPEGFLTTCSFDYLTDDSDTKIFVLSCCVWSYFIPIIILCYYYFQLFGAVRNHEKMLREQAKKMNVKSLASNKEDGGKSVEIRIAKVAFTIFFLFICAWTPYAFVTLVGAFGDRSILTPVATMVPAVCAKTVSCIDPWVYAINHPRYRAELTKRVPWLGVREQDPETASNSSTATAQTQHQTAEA
Conditions: covalent, 40 uM 11-cis-retinal.

The target of assay [1] is T3, Eumaeus atala LWRh (LW opsin) (Eumaeus atala, UniProt A0A7T3U8W4).
T3 sequence (A0A7T3U8W4 1-381): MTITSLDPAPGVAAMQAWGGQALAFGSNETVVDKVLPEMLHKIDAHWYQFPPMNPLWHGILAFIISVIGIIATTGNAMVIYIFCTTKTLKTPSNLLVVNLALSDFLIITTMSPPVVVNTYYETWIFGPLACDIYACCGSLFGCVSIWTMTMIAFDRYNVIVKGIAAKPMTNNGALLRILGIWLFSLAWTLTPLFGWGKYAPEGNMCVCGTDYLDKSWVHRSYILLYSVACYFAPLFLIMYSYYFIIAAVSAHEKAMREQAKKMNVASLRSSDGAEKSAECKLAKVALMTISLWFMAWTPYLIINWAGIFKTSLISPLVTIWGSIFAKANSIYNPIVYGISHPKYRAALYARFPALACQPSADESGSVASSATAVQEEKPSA
The settings on record: covalent, 40 uM 11-cis-retinal, figure legend prints 567 nm.

Another assay has as its target T4, Eat-BRh1 (BRh1, Eat-B1) (Eumaeus atala, UniProt A0A7T3U8I9).
T4 sequence (A0A7T3U8I9 1-380): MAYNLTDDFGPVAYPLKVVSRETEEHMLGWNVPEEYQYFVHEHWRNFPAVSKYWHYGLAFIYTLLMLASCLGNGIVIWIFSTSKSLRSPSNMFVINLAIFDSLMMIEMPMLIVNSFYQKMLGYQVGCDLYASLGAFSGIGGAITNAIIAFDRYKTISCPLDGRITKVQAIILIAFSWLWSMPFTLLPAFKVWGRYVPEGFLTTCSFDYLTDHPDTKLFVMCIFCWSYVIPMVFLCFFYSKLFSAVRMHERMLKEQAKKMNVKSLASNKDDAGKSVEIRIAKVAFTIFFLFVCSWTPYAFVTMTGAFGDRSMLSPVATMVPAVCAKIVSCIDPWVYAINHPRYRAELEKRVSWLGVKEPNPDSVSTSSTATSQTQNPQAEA
The settings on record: covalent, 40 uM 11-cis-retinal.

SMILES strings stand for the structures.

Regarding `CC1=C(/C=C/C(C)=C/C=C\C(C)=C\C=O)C(C)(C)CCC1` [11-cis-retinal], the λmax on Eumaeus atala UVRh is recorded as 352 ± 3.5 nm; on Eat-BRh2 (BRh2, Eat-B2), 500 ± 2 nm; in assay [1], 569 ± 2 nm; on Eat-BRh1 (BRh1, Eat-B1), 435 ± 2 nm.

The values are drawn from paper doi:10.1101/2020.04.06.027102v2 (biorxiv, 2020).
